target: T1, C5AR1 (Homo sapiens, UniProt P21730); assay: hC5a DISCO IC50 assay (PathHunter beta-arrestin, antagonist mode); assay type: cell-based; settings: CHO-K1 C5AR1 beta-arrestin cell line; antagonist vs 1-10 nM C5a agonist; geometric mean values; read-out: C5aR IC50
T1 construct: host or cells: CHO-K1
T1 sequence (P21730 1-350): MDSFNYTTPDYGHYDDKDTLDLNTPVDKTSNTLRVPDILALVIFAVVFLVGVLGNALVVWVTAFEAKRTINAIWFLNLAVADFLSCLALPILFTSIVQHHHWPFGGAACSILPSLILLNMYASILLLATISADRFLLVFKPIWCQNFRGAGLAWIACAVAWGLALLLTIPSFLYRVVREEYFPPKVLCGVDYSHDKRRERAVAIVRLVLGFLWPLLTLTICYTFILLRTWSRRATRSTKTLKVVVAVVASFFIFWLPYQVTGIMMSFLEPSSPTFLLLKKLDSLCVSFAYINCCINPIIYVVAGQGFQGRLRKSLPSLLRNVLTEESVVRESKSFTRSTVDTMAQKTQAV
Procedure: II. Biological Assays In Vitro Assay hC5a DISCO IC50 Assay
5 μl Antagonist at 6-fold end concentration or DMSO control is added to assay medium and subsequently 5 μl 1-10 nM C5a agonist at 6 fold end concentration. Cells are centrifuged for 1 min at 1000 rpm and incubated for 1.5 hour in at 37° C. Plates are equilibrated at room temperature for several minutes before adding 12 μl/well Detection Reagent (PathHunter Detection Kit, DiscoverX, Cat #93-0001). Plates are centrifuged for 1 min at 1000 rpm and incubated for 45 minutes at RT before being measured on a Fluostar Optima, BMG Labtech. IC50 values are calculated from a serial dilution range of antagonist using inhouse software and given in nmol/l.
The calculated IC50 values may fluctuate depending on the daily cellular assay performance. Fluctuations of this kind are known to those skilled in the art. Average IC50 values from several measurements are given as geometric mean values.

| SMILES | IC50 [nM] |
| --- | --- |
| COc1cccc2c1n(Cc1ccccc1C(F)(F)F)c(=O)n2C1CCN(C(C)C)CC1 [Example 35, 1-(1-Isopropyl-piperidin-4-yl)-4-methoxy-3-(2-trifluoromethyl-benzyl)-1,3-dihydro-benzoimidazol-2-one] | 4510 |
| COc1cccc2c1n(Cc1ccccc1C(F)(F)F)c(=O)n2[C@@H]1CCN(c2c(C)cncc2C)C1 [Example 36, 1-[(R)-1-(3,5-Dimethyl-pyridin-4-yl)-pyrrolidin-3-yl]-4-methoxy-3-(2-trifluoromethyl-benzyl)-1,3-dihydro-benzoimidazol-2-one] | 450 |
| COc1cncc(OC)c1N1CC[C@@H](n2c(=O)n(Cc3ccccc3C(F)(F)F)c3c(OC)cccc32)C1 [Example 38, 1-[(R)-1-(3,5-Dimethoxy-pyridin-4-yl)-pyrrolidin-3-yl]-4-methoxy-3-(2-trifluoromethyl-benzyl)-1,3-dihydro-benzoimidazol-2-one] | 470 |
| COc1nccc2c1n(Cc1ccccc1C(F)(F)F)c(=O)n2[C@@H]1CCN(C(=O)OC(C)(C)C)C1 [Example 39, (R)-3-[4-Methoxy-2-oxo-3-(2-trifluoromethyl-benzyl)-2,3-dihydro-imidazo[4,5-c]pyridin-1-yl]-pyrrolidine-1-carboxylic acid tert-butyl ester] | 2430 |
| COc1nccc2c1n(Cc1ccccc1C(F)(F)F)c(=O)n2[C@@H]1CCN(c2c(F)cccc2F)C1 [Example 42, 1-[(R)-1-(2,6-Difluoro-phenyl)-pyrrolidin-3-yl]-4-methoxy-3-(2-trifluoromethyl-benzyl)-1,3-dihydro-imidazo[4,5-c]pyridin-2-one] | 75 |
| COc1ccnc2c1n(Cc1ccccc1C(F)(F)F)c(=O)n2[C@@H]1CCN(C(=O)OC(C)(C)C)C1 [Example 43, (R)-3-[7-Methoxy-2-oxo-1-(2-trifluoromethyl-benzyl)-1,2-dihydro-imidazo[4,5-b]pyridin-3-yl]-pyrrolidine-1-carboxylic acid tert-butyl ester] | 393 |
| COc1nccc(C)c1N1CC[C@@H](n2c(=O)n(Cc3ccccc3C(F)(F)F)c3c(OC)nccc32)C1 [Example 47, 4-Methoxy-1-[(R)-1-(2-methoxy-4-methyl-pyridin-3-yl)-pyrrolidin-3-yl]-3-(2-trifluoromethyl-benzyl)-1,3-dihydro-imidazo[4,5-c]pyridin-2-one] | 95 |
| COc1nccc2c1n(Cc1ccccc1C(F)(F)F)c(=O)n2[C@@H]1CCN(c2c(C)ccnc2F)C1 [Example 48, 1-[(R)-1-(2-Fluoro-4-methyl-pyridin-3-yl)-pyrrolidin-3-yl]-4-methoxy-3-(2-trifluoromethyl-benzyl)-1,3-dihydro-imidazo[4,5-c]pyridin-2-one] | 165 |
| COc1cccc(F)c1N1CC[C@@H](n2c(=O)n(Cc3ccccc3C(F)(F)F)c3c(OC)nccc32)C1 [Example 49, 1-[(R)-1-(2-Fluoro-6-methoxy-phenyl)-pyrrolidin-3-yl]-4-methoxy-3-(2-trifluoromethyl-benzyl)-1,3-dihydro-imidazo[4,5-c]pyridin-2-one] | 132 |
| COc1cccc(C)c1N1CC[C@@H](n2c(=O)n(Cc3ccccc3C(F)(F)F)c3c(OC)nccc32)C1 [Example 51, 4-Methoxy-1-[(R)-1-(2-methoxy-6-methyl-phenyl)-pyrrolidin-3-yl]-3-(2-trifluoromethyl-benzyl)-1,3-dihydro-imidazo[4,5-c]pyridin-2-one] | 62 |
| COc1cccc2c1n(Cc1cnccc1C(F)(F)F)c(=O)n2C1CCN(C(=O)OC(C)(C)C)CC1 [Example 53, 4-[4-Methoxy-2-oxo-3-(4-trifluoromethyl-pyridin-3-ylmethyl)-2,3-dihydro-benzoimidazol-1-yl]-piperidine-1-carboxylic acid tert-butyl ester] | 1840 |
| COc1cccc2c1n(Cc1cccnc1C(F)(F)F)c(=O)n2C1CCN(c2c(F)cccc2F)CC1 [Example 55, 1-[1-(2,6-Difluoro-phenyl)-piperidin-4-yl]-4-methoxy-3-(2-trifluoromethyl-pyridin-3-ylmethyl)-1,3-dihydro-benzoimidazol-2-one] | 178 |
| COc1cccc(F)c1N1CC[C@@H](n2c(=O)n(Cc3ccccc3C(F)(F)F)c3c(=O)[nH]ccc32)C1 [Example 56, 1-[(R)-1-(2-Fluoro-6-methoxy-phenyl)-pyrrolidin-3-yl]-3-(2-trifluoromethyl-benzyl)-3,5-dihydro-1H-imidazo[4,5-c]pyridine-2,4-dione] | 717 |
| Cc1cccc(F)c1N1CC[C@@H](n2c(=O)n(Cc3ccccc3C(F)(F)F)c3c(=O)[nH]ccc32)C1 [Example 57, 1-[(R)-1-(2-Fluoro-6-methyl-phenyl)-pyrrolidin-3-yl]-3-(2-trifluoromethyl-benzyl)-3,5-dihydro-1H-imidazo[4,5-c]pyridine-2,4-dione] | 89 |
| COc1cccc2c1n(Cc1cnccc1C(F)(F)F)c(=O)n2C1CCN(c2c(F)cccc2F)CC1 [Example 59, 1-[1-(2,6-Difluoro-phenyl)-piperidin-4-yl]-4-methoxy-3-(4-trifluoromethyl-pyridin-3-ylmethyl)-1,3-dihydro-benzoimidazol-2-one] | 49 |

The next molecules have a lower IC50 than those just listed; values first:

| IC50 [nM] | SMILES |
| --- | --- |
| 43 | COc1cccc2c1n(Cc1cccnc1C(F)(F)F)c(=O)n2C1CCN(c2c(C)cccc2C)CC1 [Example 54, 1-[1-(2,6-Dimethyl-phenyl)-piperidin-4-yl]-4-methoxy-3-(2-trifluoromethyl-pyridin-3-ylmethyl)-1,3-dihydro-benzoimidazol-2-one] |
| 42 | COc1nccc2c1n(Cc1ccccc1C(F)(F)F)c(=O)n2[C@@H]1CCN(c2c(C)cccc2F)C1 [Example 50, 1-[(R)-1-(2-Fluoro-6-methyl-phenyl)-pyrrolidin-3-yl]-4-methoxy-3-(2-trifluoromethyl-benzyl)-1,3-dihydro-imidazo[4,5-c]pyridin-2-one] |
| 39 | COc1ccnc2c1n(Cc1ccccc1C(F)(F)F)c(=O)n2[C@@H]1CCN(c2c(F)cccc2F)C1 [Example 46, 3-[(R)-1-(2,6-Difluoro-phenyl)-pyrrolidin-3-yl]-7-methoxy-1-(2-trifluoromethyl-benzyl)-1,3-dihydro-imidazo[4,5-b]pyridin-2-one] |
| 30 | Cc1cccc(C)c1N1CC[C@@H](n2c(=O)n(Cc3ccccc3C(F)(F)F)c3c(OCCO)cccc32)C1 [Example 52, 1-[(R)-1-(2,6-Dimethyl-phenyl)-pyrrolidin-3-yl]-4-(2-hydroxy-ethoxy)-3-(2-trifluoromethyl-benzyl)-1,3-dihydro-benzoimidazol-2-one] |
| 27 | COc1cccc2c1n(Cc1ccccc1C(F)(F)F)c(=O)n2[C@@H]1CCN(c2c(F)cncc2F)C1 [Example 34, 1-[(R)-1-(3,5-Difluoro-pyridin-4-yl)-pyrrolidin-3-yl]-4-methoxy-3-(2-trifluoromethyl-benzyl)-1,3-dihydro-benzoimidazol-2-one] |
| 25 | COc1cccc2c1n(Cc1cnccc1C(F)(F)F)c(=O)n2C1CCN(c2c(C)cccc2C)CC1 [Example 58, 1-[1-(2,6-Dimethyl-phenyl)-piperidin-4-yl]-4-methoxy-3-(4-trifluoromethyl-pyridin-3-ylmethyl)-1,3-dihydro-benzoimidazol-2-one] |
| 18 | COc1nccc2c1n(Cc1ccccc1C(F)(F)F)c(=O)n2[C@@H]1CCN(c2c(C)cccc2C)C1 [Example 41, 1-[(R)-1-(2,6-Dimethyl-phenyl)-pyrrolidin-3-yl]-4-methoxy-3-(2-trifluoromethyl-benzyl)-1,3-dihydro-imidazo[4,5-c]pyridin-2-one] |
| 16 | COc1ccnc2c1n(Cc1ccccc1C(F)(F)F)c(=O)n2[C@@H]1CCN(c2c(C)cccc2C)C1 [Example 45, 3-[(R)-1-(2,6-Dimethyl-phenyl)-pyrrolidin-3-yl]-7-methoxy-1-(2-trifluoromethyl-benzyl)-1,3-dihydro-imidazo[4,5-b]pyridin-2-one] |
| 13 | Cc1cccc(C)c1N1CC[C@@H](n2c(=O)n(Cc3ccccc3C(F)(F)F)c3c(O)cccc32)C1 [Example 44, 1-[(R)-1-(2,6-Dimethyl-phenyl)-pyrrolidin-3-yl]-4-hydroxy-3-(2-trifluoromethyl-benzyl)-1,3-dihydro-benzoimidazol-2-one] |
| 8 | COc1nccc(C)c1N1CC[C@@H](n2c(=O)n(Cc3ccccc3C(F)(F)F)c3c(OC)cccc32)C1 [Example 33, 4-Methoxy-1-[(R)-1-(2-methoxy-4-methyl-pyridin-3-yl)-pyrrolidin-3-yl]-3-(2-trifluoromethyl-benzyl)-1,3-dihydro-benzoimidazol-2-one] |
| 7 | COc1cccc2c1n(Cc1ccccc1C(F)(F)F)c(=O)n2[C@@H]1CCN(c2c(C)ccnc2F)C1 [Example 37, 1-[(R)-1-(2-Fluoro-4-methyl-pyridin-3-yl)-pyrrolidin-3-yl]-4-methoxy-3-(2-trifluoromethyl-benzyl)-1,3-dihydro-benzoimidazol-2-one] |
| 6 | Cc1cccc(F)c1N1CC[C@@H](n2c(=O)n(Cc3ccccc3C(F)(F)F)c3c(O)cccc32)C1 [Example 40, 1-[(R)-1-(2-Fluoro-6-methyl-phenyl)-pyrrolidin-3-yl]-4-hydroxy-3-(2-trifluoromethyl-benzyl)-1,3-dihydro-benzoimidazol-2-one] |
